Patent publication US6194451A, “Matrix metalloproteinase inhibitors” (Pharmacia & Upjohn S.p.A., priority 1997, dated 2001)
Values after ≈ are worked out from the molar mass of the structure shown.

How the values were obtained:
[1] = tested on: release of TNF from THP-1 cells; assay: Cellular Assay (Protocol B): inhibition of release of TNF from LPS-stimulated THP-1 cells; type: cell-based; conditions: Homo sapiens, LPS 5 microg/mL, 4 h
Protocol: For example, the following cell-based assay was used to assess such activity:
THP-1 cells, cultured in RPMI 1640 supplemented with 10% FCS, were distributed into 24-well plates, 1 mL of a suspension of 1×10^6 cells/mL in each well. Compounds to be tested, dissolved in DMSO and diluted with the culture medium (1% final DMSO concentration) were added. Plates were incubated for 30 min at 37° C. in 5% CO2, and lipopolisaccharide (LPS 0111:B4, 5 microg/mL) was added as a stimulant. After a further 4 h incubation, cells were harvested, centrifuged (2,000 rpm, 7 min), and the surnatant was collected and freezed (-20° C.) until analysis. Analysis was run by classical ELISA methodology (monoclonal anti-TNF-a antibody, rabbit capture policlonal antibody, and peroxidated anti-rabbit antibody).

[2] = target: T1, MMP-2 (human gelatinase A) (Homo sapiens, UniProt P08253); assay: Biochemical Assay (Protocol A): inhibition of human gelatinase A, fluorimetric peptide substrate; conditions: MMP-2, pH 7.4, 37° C.
T1 sequence (P08253 110-660): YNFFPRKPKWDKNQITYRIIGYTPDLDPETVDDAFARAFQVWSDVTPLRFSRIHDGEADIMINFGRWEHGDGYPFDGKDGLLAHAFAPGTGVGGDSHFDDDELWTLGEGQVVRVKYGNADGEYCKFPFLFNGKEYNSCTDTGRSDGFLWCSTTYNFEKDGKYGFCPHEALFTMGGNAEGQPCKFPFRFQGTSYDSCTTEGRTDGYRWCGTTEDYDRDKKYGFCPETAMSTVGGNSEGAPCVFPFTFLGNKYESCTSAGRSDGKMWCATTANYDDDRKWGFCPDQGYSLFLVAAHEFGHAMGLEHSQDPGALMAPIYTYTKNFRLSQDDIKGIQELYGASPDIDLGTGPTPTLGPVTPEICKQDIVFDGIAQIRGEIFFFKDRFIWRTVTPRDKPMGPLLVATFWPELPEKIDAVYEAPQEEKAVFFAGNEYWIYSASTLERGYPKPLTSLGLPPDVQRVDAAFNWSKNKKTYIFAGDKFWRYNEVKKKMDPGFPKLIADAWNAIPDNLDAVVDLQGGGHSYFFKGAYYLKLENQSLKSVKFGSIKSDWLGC
From the text: (§1) As mentioned above, although low molecular weight MMP inhibitors, including hydroxamates of general formula (A), are already known, there is a strong need for better and diversified molecules for their use in medicine, that is in particular in the control or prevention of degenerative joint diseases such as rheumatoid arthritis and osteoarthritis, or in the management of multiple sclerosis, or in the treatment of invasive tumors. […] For example, the following protocol was used to assess the biochemical activity of compounds of formula (I) against MMP-1, MMP-2, and MMP-3 (respectively, human interstitial collagenase, gelatinase A, and stromelysin-1).
(§2) Human gelatinase-A (MMP-2) was obtained as pro-enzyme (72 kDa) and was activated with 1 mM 4-aminophenylmercuric acetate for 30 min at 37° C. immediately prior to use. Human stromelysin-1 (MMP-3) was obtained as a recombinant pro-enzyme isolated either from E. coli or from baculovirus infected Sf9 insect cells and activated either by heat (1 h, 55° C.) or by 5 mg/l trypsin (30 min, 37° C.) before addition of soybean trypsin inhibitor, finally removed by centrifugation.
(§3) All enzyme assays to determine values of the enzyme-inhibitor dissociation constants were performed using the peptide substrate (7-methoxycoumarin-4-yl)Acetyl-Pro-Leu-Gly-Leu-(3-[2,4-dinitrophenyl]-L-2,3-diaminopropionyl)-Ala-Arg-NH2 (Mca-Pro-Leu-Gly-Leu-Dpa-Ala-Arg--NH2) (C. G. Knight et al., FEBS Lett. 296:263-266, 1992). The enzymes cleave at the Gly-Leu bond removing the internally quenching Dpa group. The release of the highly fluorescent peptide Mca-Pro-Leu was followed fluorimetrically setting the excitation wavelength at 326 nm (bandwidth 5 nm) and the emission at 392 nm (bandwidth 20 nm).
(§4) Continuous fluorescence assay was carried out using a Perkin Elmer LS-50 Fluorescence Spectrophotometer fitted with a thermostatted four position stirring cell changer. Inhibitors were dissolved in the assay buffer ([…] Tris/HCl pH 7.4 containing 0.15 M NaCl, 10 mM CaCl2, 0.01 mM ZnCl2 and 0.05% Brij 35) thermostatted at 37° C. The reaction was started by the addition of substrate ([…]), followed by the addition of the enzyme (e.g. 1.0 nM collagenase, 0.04 nM gelatinase, or 3.0 nM stromelysin) and the increase in fluorescence was monitored over 30 min. The run was repeated at different concentrations of inhibitors in the range 0.1-10000 nM and data at inhibitor concentration in the region if their enzyme-inhibitor dissociation constants were used for calculation.
(§5) Substrate consumption was within 5% of the initial concentration and data outside this range were discarded. The Michaelis constants (Km) for the enzyme-substrate complexes is […] or greater (C. G. Knight et al., reference above), so that the factor (1+S/Km) can be approximated to unity without appreciable error.

[3] = target: T2, MMP-1 (human interstitial collagenase) (Homo sapiens, UniProt P03956); assay: Biochemical Assay (Protocol A): inhibition of human collagenase, fluorimetric peptide substrate; conditions: MMP-1, pH 7.4, 37° C.
T2 construct: truncated recombinant enzyme encompassing residues 101-269
T2 sequence (P03956 101-269): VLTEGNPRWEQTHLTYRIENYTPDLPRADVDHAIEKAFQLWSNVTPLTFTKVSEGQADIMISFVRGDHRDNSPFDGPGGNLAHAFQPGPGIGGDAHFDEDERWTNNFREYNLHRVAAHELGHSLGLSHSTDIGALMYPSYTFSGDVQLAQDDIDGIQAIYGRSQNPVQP
From the text: as §1, §2, §3, §4, §5

[4] = target: T3, MMP-3 (human stromelysin-1) (Homo sapiens, UniProt P08254); assay: Biochemical Assay (Protocol A): inhibition of human stromelysin-1, fluorimetric peptide substrate; conditions: MMP-3, pH 7.4, 37° C.
T3 construct: host or cells: E. coli or baculovirus-infected Sf9 insect cells
From the text: as §1, §2, §3, §4, §5

[5] = Aqueous solubility; type: physicochemical; conditions: water, pH 7.0, 25° C.
Protocol: Further, several compounds of formula (I), in particular when R2 is hydroxy, and when R1 is hydroxymethyl, have enhanced water solubility as compared to the vast majority of MMP inhibitors of the prior art. An aqueous solubility threshold, which may vary widely but can be roughly set in the range of 1-10 mg/mL, makes systemic administration easy, and more than often is essential to good oral bioavailability.

T3 sequence (P08254 100-477): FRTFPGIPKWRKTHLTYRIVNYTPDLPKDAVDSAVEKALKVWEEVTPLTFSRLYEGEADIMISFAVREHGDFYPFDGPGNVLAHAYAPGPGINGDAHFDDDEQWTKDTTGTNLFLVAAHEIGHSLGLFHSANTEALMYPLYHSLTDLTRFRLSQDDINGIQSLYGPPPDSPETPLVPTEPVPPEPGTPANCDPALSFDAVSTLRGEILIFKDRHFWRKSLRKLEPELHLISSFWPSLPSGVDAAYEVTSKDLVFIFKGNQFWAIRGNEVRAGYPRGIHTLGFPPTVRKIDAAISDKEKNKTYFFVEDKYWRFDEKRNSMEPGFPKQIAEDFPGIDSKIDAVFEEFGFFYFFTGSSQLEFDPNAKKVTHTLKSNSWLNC

IC50 [1] | Ki [2] | Ki [3] | Ki [4] | solubility [5] | SMILES | inhibition at 100 µM ([1]; at 100 microM)
5200 nM | – | – | – | – | CNC(=O)[C@@H](NC(=O)[C@H](CC(C)C)[C@](O)(COC1CCCCO1)C(=O)NO)C(C)(C)C (stereo partly drawn) [Example 2, [(2R,3S)-3-Hydroxy-4-hydroxyamino-2-isobutyl-3-(tetrahydro-pyran-2-yloxymethyl)succinyl]-L-tert-leucine-N-methylamide] | –
1490 nM | 0.62 nM | 2.7 nM | 15 nM | – | CNC(=O)[C@H](Cc1ccccc1)NC(=O)[C@H](CC(C)C)[C@](O)(COC1CCCCO1)C(=O)NO (stereo partly drawn) [Example 5, [(2R,3S)-3-Hydroxy-4-hydroxyamino-2-isobutyl-3-(tetrahydro-pyran-2-yloxymethyl)succinyl]-L-phenylalanine-N-methylamide] | –
65400 nM | 23 nM | 67 nM | 430 nM | – | CNC(=O)[C@H](Cc1ccccc1)NC(=O)[C@H](CC(C)C)[C@@](O)(COC1CCCCO1)C(=O)NO (stereo partly drawn) [Example 6, [(2R,3R)-3-Hydroxy-4-hydroxyamino-2-isobutyl-3-(tetrahydro-pyran-2-yloxymethyl)succinyl]-L-phenylalanine-N-methylamide] | –
– | 3.1 nM | 1.5 nM | 32 nM | 6000 µg/mL (≈ 15.2 mM) | CNC(=O)[C@H](Cc1ccccc1)NC(=O)[C@H](CC(C)C)[C@](O)(CO)C(=O)NO [Example 7, [(2R,3S)-3-Hydroxy-4-hydroxyamino-3-hydroxymethyl-2-isobutyl-succinyl]-L-phenylalanine-N-methylamide] | 90%
– | 40 nM | 45 nM | 1100 nM | 10000 µg/mL (≈ 18.9 mM) | CNC(=O)[C@@H](NC(=O)[C@H](CC(C)C)[C@@](COC1CCCCO1)(OC1CCCCO1)C(=O)NO)C(C)(C)C (stereo partly drawn) [Example 8, [(2R,3S)-4-Hydroxyamino-2-isobutyl-3-(2-tetrahydropyranyl)oxy-3-(2-tetrahydropyranyl)oxymethylsuccinyl]-L-tert-leucine-N-methylamide] | –
– | 9.5 nM | 6.8 nM | 10 nM | > 10000 µg/mL | CC(C)C[C@@H](C(=O)N[C@H](C(=O)Nc1ccncc1)C(C)(C)C)[C@](O)(CO)C(=O)NO [Example 12, [(2R,3S)-3-Hydroxy-4-hydroxyamino-3-hydroxymethyl-2-isobutyl-succinyl]-L-tert-leucine-N-(4-pyridyl)amide] | –
– | 19 nM | 25 nM | 880 nM | 5800 µg/mL (≈ 15.4 mM) | CNC(=O)[C@H](Cc1ccccc1)NC(=O)[C@H](CC(C)C)C1(C(=O)NO)CC1 [Example 20, [2R-(1-Hydroxyaminocarbonyl)cyclopropyl-4-methylpentanoyl]-L-phenylalanine-N-methylamide] | –
– | – | – | – | 1900 µg/mL (≈ 4.65 mM) | CC(C)C[C@@H](C(=O)N1CCOCC1)[C@](O)(COC(=O)c1ccccc1)C(=O)NO [Example 22, 1-[(2R,3S)-3-Benzoyoloxymethyl-3-hydroxy-4-hydroxyamino-2-isobutylsuccinyl]morpholine] | –
– | – | – | – | > 6000 µg/mL | CC(C)C[C@@H](C(=O)N1CCCCC1)[C@](O)(CO)C(=O)NO [Example 24, 1-[(2R,3S)-3-Hydroxy-4-hydroxyamino-3-hydroxymethyl-2-isobutyl-succinyl]piperidine] | –

SMILES | IC50 [1] | Ki [2] | Ki [3] | Ki [4] | solubility [5] | inhibition at 100 µM ([1]; at 100 microM)
CNC(=O)[C@@H](NC(=O)[C@H](CC(C)C)[C@](O)(COC(C)=O)C(=O)NO)C(C)(C)C [Example 9, [(2R,3S)-3-Acetoxymethyl-3-hydroxy-4-hydroxyamino-2-isobutyl-succinyl]-L-tert-leucine-N-methylamide] | – | 1.7 nM | 2.2 nM | 110 nM | > 9000 µg/mL | –
CC(=O)OC[C@](O)(C(=O)NO)[C@@H](CC(C)C)C(=O)N[C@H](C(=O)Nc1ccncc1)C(C)(C)C [Example 11, [(2R,3S)-3-Acetoxymethyl-3-hydroxy-4-hydroxyamino-2-isobutyl-succinyl]-L-tert-leucine-N-(4-pyridyl)amide] | – | 4.7 nM | 7.3 nM | 4.9 nM | 3400 µg/mL (≈ 7.29 mM) | –
CNC(=O)[C@@H](NC(=O)[C@H](CC(C)C)[C@](O)(COC(=O)C(C)(C)C)C(=O)NO)C(C)(C)C [Example 13, [(2R,3S)-3-Hydroxy-4-hydroxyamino-2-isobutyl-3-(tri-methylacetoxy)methyl-succinyl]-L-tert-leucine-N-methylamide] | – | 6.5 nM | 3.4 nM | 71 nM | 1300 µg/mL (≈ 2.92 mM) | –
CC(=O)OC[C@](O)(C(=O)NO)[C@@H](CC(C)C)C(=O)N1CCCCC1 [Example 23, 1-[(2R,3S)-3-Acetoxymethyl-3-hydroxy-4-hydroxyamino-2-isobutylsuccinyl]piperidine] | – | – | – | – | 5000 µg/mL (≈ 14.5 mM) | –
CC(C)C[C@@H](C(=O)N1CCOCC1)[C@](O)(COC(=O)C(C)(C)C)C(=O)NO [Example 25, 1-[(2R,3S)-3-Hydroxy-4-hydroxyamino-2-isobutyl-3-(trimethyl-acetoxy)methylsuccinyl]morpholine] | – | – | – | – | > 8000 µg/mL | –
